In PMC6812009, “Covalent Aurora A regulation by the metabolic integrator coenzyme A” (Redox Biology, 2019):

Key:
Test in all cases: Kinase profiling screen (radioactive filter-binding assay)
Type in all cases: biochemical
ASK1 = biological target: T1, ASK1 (Homo sapiens, UniProt Q99683); conditions: 100 μM compound, 50 μM ATP; read-out: Kinase activity, % of activity in the absence of inhibitor
T1 sequence (Q99683 1-1374): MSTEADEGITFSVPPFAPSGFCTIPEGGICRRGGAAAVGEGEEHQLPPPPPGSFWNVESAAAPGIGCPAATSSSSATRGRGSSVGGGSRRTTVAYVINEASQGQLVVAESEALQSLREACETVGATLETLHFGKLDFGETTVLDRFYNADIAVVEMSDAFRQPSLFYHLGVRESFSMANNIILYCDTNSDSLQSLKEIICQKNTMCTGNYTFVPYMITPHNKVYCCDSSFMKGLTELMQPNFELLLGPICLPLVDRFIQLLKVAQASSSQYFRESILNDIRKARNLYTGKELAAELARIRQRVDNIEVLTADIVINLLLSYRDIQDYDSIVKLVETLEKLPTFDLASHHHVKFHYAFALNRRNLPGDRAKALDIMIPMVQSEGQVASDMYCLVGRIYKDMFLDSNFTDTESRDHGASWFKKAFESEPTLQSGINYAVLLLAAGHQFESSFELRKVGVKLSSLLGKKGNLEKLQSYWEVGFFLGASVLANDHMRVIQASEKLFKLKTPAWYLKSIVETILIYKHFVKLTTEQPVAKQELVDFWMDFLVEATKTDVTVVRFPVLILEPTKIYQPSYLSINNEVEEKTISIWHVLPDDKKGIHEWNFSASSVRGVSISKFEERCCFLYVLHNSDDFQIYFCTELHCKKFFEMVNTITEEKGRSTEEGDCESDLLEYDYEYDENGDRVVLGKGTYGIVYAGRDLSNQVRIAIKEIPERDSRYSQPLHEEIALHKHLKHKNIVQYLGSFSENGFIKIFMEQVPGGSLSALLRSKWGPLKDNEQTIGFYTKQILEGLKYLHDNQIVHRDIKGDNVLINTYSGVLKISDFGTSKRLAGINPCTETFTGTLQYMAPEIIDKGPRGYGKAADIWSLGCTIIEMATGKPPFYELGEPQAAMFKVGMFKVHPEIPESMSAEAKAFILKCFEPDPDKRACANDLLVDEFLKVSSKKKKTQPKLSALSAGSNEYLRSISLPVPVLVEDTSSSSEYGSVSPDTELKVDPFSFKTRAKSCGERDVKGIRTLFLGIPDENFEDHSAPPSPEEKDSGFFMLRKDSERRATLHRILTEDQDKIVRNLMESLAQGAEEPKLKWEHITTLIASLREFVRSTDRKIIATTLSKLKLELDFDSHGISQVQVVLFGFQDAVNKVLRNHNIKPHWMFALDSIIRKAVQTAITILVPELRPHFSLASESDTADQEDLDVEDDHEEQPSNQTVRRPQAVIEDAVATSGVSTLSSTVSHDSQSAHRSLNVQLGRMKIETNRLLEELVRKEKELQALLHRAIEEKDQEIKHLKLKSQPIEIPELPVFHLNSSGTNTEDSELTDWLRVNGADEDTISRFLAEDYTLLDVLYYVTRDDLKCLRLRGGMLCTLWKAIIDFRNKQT
Summary of the method: (§1)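 Panel of 117 recombinant kinases; CoA, dpCoA, ADP each at 100 μM final, duplicates; model substrates, ATP at optimal level.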

BRSK2 = biological target: T2, BRSK2 (Homo sapiens, UniProt Q8IWQ3); conditions: 100 μM compound, 50 μM ATP; read-out: Kinase activity, % of activity in the absence of inhibitor
T2 sequence (Q8IWQ3 1-736): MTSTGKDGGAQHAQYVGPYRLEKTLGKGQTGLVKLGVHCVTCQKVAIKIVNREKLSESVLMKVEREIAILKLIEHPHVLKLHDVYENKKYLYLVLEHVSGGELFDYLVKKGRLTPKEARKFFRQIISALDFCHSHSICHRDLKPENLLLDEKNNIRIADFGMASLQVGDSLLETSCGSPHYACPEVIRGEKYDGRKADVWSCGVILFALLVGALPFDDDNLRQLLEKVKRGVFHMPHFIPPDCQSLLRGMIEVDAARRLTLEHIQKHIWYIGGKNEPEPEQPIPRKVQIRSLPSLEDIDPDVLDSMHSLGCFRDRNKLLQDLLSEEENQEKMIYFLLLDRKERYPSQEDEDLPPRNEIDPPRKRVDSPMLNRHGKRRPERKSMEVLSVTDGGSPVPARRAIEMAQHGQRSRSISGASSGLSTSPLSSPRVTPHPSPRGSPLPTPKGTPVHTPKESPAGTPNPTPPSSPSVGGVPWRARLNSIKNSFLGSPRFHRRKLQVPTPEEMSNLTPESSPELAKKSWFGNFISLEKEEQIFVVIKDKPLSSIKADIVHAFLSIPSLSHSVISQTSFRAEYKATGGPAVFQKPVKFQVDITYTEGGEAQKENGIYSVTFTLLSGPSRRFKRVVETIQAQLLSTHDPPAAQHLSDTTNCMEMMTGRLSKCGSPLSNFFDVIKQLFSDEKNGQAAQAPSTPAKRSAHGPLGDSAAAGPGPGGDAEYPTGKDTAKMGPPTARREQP
Summary of the method: as §1

DYRK1A = DYRK1A (Homo sapiens, UniProt Q13627); conditions: 100 μM compound, 50 μM ATP; read-out: Kinase activity, % of activity in the absence of inhibitor
Summary of the method: as §1

FGF-R1 = FGF-R1 (Homo sapiens, UniProt P11362); conditions: for activity at 100 µM: 100 μM compound, 20 μM ATP, read-out: Kinase activity, % of activity in the absence of inhibitor
Summary of the method: as §1

PIM2 = PIM2 (Homo sapiens, UniProt Q9P1W9); conditions: 100 μM compound, 5 μM ATP; read-out: Kinase activity, % of activity in the absence of inhibitor
Summary of the method: as §1

Chain of FGF-R1 (P11362 22-822): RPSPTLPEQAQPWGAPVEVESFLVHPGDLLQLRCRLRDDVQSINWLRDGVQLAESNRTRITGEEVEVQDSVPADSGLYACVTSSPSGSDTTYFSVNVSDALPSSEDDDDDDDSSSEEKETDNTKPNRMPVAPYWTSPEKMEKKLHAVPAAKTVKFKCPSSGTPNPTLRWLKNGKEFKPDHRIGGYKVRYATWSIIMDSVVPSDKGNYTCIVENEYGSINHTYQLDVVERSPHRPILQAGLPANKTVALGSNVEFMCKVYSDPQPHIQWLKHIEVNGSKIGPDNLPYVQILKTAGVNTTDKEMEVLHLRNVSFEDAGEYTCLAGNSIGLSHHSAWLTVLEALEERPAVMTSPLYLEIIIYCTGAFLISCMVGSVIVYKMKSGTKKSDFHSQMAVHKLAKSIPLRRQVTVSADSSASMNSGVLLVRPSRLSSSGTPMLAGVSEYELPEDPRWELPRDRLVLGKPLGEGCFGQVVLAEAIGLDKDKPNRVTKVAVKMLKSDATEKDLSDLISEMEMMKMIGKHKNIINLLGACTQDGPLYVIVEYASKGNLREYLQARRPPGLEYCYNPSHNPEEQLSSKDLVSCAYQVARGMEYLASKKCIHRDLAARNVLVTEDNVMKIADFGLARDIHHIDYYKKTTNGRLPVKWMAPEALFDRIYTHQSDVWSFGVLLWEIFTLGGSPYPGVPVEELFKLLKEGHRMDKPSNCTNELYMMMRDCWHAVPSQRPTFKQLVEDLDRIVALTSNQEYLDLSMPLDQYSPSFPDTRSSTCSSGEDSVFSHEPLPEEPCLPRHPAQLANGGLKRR
Chain of PIM2 (Q9P1W9 whole entry): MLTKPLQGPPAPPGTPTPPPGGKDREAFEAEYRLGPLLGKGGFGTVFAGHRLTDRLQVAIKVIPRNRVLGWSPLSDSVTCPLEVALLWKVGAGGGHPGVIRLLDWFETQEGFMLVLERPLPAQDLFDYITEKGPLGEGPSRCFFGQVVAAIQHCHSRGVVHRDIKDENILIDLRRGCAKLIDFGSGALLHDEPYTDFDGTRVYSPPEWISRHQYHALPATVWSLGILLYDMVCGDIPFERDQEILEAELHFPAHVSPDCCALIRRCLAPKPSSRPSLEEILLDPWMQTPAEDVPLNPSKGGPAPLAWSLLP

SMILES	activity at 100 µM (ASK1) [%]	activity at 100 µM (BRSK2) [%]	activity at 100 µM (DYRK1A) [%]	activity at 100 µM (FGF-R1) [%]	activity at 100 µM (PIM2) [%]	FGFR1 inhibition (in words) (FGF-R1; kinase profiling, 100 μM)
Nc1ncnc2c1ncn2C1OC(COP(=O)(O)OP(=O)(O)O)C(O)C1O (stereo not shown) [ADP]	70.2	52.4	75.9	41.7	9.8	
CC(C)(COP(=O)(O)OP(=O)(O)OC[C@H]1O[C@@H](n2cnc3c(N)ncnc32)[C@H](O)[C@@H]1OP(=O)(O)O)[C@@H](O)C(=O)NCCC(=O)NCCS [CoA, Coenzyme A]	129	115	93.1	60	111	modestly inhibited
CC(C)(COP(=O)(O)OP(=O)(O)OCC1OC(n2cnc3c(N)ncnc32)C(O)C1O)C(O)C(=O)NCCC(=O)NCCS (stereo not shown) [dpCoA, dephospho-CoA]	88.6	88.8	90.2	31.4	62.9	
